Experimental data from paper PMC11969171 (Biomedicine & pharmacotherapy = Biomedecine & …, 2022).
Where a chain is given by its changes, count along the chain named.

Experiments:
A1R^wt [1] = target: T1, A1R^wt (Homo sapiens, UniProt P30542); conditions: CPA 200 nM
T1 sequence (P30542 1-326): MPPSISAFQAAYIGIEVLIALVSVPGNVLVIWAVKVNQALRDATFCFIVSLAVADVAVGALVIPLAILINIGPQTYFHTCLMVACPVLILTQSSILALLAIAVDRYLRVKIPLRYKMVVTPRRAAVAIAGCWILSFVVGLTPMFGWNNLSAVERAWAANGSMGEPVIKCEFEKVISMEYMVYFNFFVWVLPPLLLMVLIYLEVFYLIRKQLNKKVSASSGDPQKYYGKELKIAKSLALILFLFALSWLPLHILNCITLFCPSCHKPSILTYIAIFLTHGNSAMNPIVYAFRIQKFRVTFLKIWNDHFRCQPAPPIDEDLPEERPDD

A1R^G279S [2] = target: T2, A1R^G279S (Homo sapiens, UniProt P30542, G279S); conditions: CPA 200 nM
T2 sequence (P30542 1-326 G279S): T1 sequence (P30542 1-326) with G279S

A1R^G279S [3] = target: T2, A1R^G279S; assay type: binding; conditions: saturating concentration of DPCPX (1 µM)
A1R^wt [4] = target: T1, A1R^wt; assay type: binding; conditions: saturating concentration of DPCPX (1 µM)
[5] = system: corticostriatal glutamate release; conditions: rats, local application, ref [64]; cited from earlier work

SMILES: OC[C@H]1O[C@@H](n2cnc3c(NC4CCCC4)ncnc32)[C@H](O)[C@@H]1O [CPA, N6-cyclopentyladenosine]
- functional coupling to Gα12/13, Gαs, β-arrestin2 or GRK2 (A1R^wt [1]): No functional coupling
- time to peak of NL-generated signal (A1R^wt [1]; Gαi-LgBiT or Gαq-LgBiT, decline to basal after 1 h): 10 min
- functional coupling to Gα12/13, Gαs, β-arrestin2 or GRK2 (A1R^G279S [2]): No functional coupling

SMILES: CCCn1c(=O)c2[nH]c(C3CCCC3)nc2n(CCC)c1=O [DPCPX, 8-cyclopentyl-1,3-dipropylxanthine]
- displacement of CA200634 binding (A1R^G279S [3]): displaced
- displacement of CA200634 binding (A1R^wt [4]): displaced

SMILES: OCCN(CCO)c1nc(N2CCCCC2)c2nc(N(CCO)CCO)nc(N3CCCCC3)c2n1 [dipyridamole]
- basal and optogenetic-induced corticostriatal glutamate release [5]: significant decrease
